From patent US20230416268A1, “PYRIMIDINONE-CONTAINING 17-BETA-HYDROXYSTEROID DEHYDROGENASE TYPE 13 INHIBITORS” (ENANTA PHARMACEUTICALS, INC., priority 2022, published 2023)

Biological target: Recombinant human 17β-HSD13 (Homo sapiens (Human), UniProt Q7Z5P4)
Assay: 17β-HSD13 rapid-fire mass spectrometry assay (RF/MS assay)
Type: biochemical
Conditions: HSD17B13 80 nM, LTB4 10 μM, NAD+ 0.5 mM, RT 3 h, RF/MS readout
Experimental: 17β-HSD13 rapid-fire mass spectrometry assay (RF/MS assay). Recombinant human 17β-HSD13 was expressed and purified from sf9 cells at Charles River Labs (Saffron Walden, UK). […] The assays were quenched by adding 20 μL of 0.15% aqueous formic acid and the plates were frozen at −80° C. RF/MS analysis was performed at PureHoney Technologies (Billerica, MA) on a RapidFire RF300 system (Agilent Technologies, Inc.) coupled to an API 4000 triple quadrupole mass spectrometer (Sciex) equipped with Agilent RapidFire cartridge type A (C4). The mobile phase was 0.09% formic acid and 0.01% trifluoracetic acid in water (Buffer A) and 0.09% formic acid and 0.01% trifluoracetic acid in 80% aqueous acetonitrile (Buffer B). The RapidFire method conditions were the following: 250 ms aspirate, 3000 ms load/desalt, 4000 ms elute, and 500 ms re-equilibrate. RF-MS/MS was performed in negative polarity (−4500 V), the source temperature was 650° C., and gas 1 and gas 2 settings for nitrogen were set to 50. The curtain gas and collision gas were also nitrogen and were set to 20 and 12, respectively.
Data Analysis. 17β-HSD13 enzyme activity was measured as percent conversion of extracted ion counts and normalized to high and low controls to determine percent residual activity at various concentrations of test compounds. Data were fitted to normalized activity (variable slope) versus concentration fit in GraphPad Prism 7 to determine IC50. All experiments were run in duplicates.

Sequence of Recombinant human 17β-HSD13 (Q7Z5P4 20-300): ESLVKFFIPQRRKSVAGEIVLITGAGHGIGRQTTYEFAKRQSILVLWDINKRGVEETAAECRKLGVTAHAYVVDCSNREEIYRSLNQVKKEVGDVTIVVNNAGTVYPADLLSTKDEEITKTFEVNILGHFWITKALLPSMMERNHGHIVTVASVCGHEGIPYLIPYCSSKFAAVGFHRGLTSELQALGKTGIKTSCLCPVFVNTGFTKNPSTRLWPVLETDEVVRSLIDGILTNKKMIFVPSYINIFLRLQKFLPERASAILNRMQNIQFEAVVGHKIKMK

| Compound | IC50 [nM] |
| --- | --- |
| COc1ccc(-c2nc3sc4c(OC(C)=O)cccc4c3c(=O)n2Cc2cnco2)c(C2CC2)c1 [Example 1, 2-(2-cyclopropyl-4-methoxyphenyl)-3-(oxazol-5-ylmethyl)-4-oxo-3,4-dihydrobenzo[4,5]thieno[2,3-d]pyrimidin-8-yl acetate] | 100 to 1000 |
| COc1ccc(-c2nc3sc4c(OC(=O)c5ccccc5)cccc4c3c(=O)n2Cc2cnco2)c(C2CC2)c1 [Example 3, 2-(2-cyclopropyl-4-methoxyphenyl)-3-(oxazol-5-ylmethyl)-4-oxo-3,4-dihydrobenzo[4,5]thieno[2,3-d]pyrimidin-8-yl benzoate] | 100 to 1000 |
| O=c1c2c(nc(-c3ccc4c(c3)OCCO4)n1Cc1ccccc1)sc1c(O)cccc12 [Example 4] | 100 to 1000 |
| CC(C)(C)c1ccc(-c2nc3sc4c(O)cccc4c3c(=O)n2Cc2ccccc2)cc1 [Example 5] | > 10000 |
| O=c1c2c(nc(-c3ccc4c(c3)OCO4)n1Cc1ccccc1)sc1c(O)cccc12 [Example 6] | > 10000 |
| CC(C)Oc1ccc(-c2nc3sc4c(O)cccc4c3c(=O)n2Cc2ccccc2)cc1 [Example 7] | > 10000 |
| COc1ccc(-c2nc3sc4c(O)cccc4c3c(=O)n2Cc2ccccc2)c(Br)c1 [Example 8] | 100 to 1000 |
| COc1ccc(-c2nc3sc4c(O)cccc4c3c(=O)n2CCNC(=O)c2ccncc2)c(C2CC2)c1 [Example 38] | 100 to 1000 |
| COc1ccc(-c2nc3sc4c(O)cccc4c3c(=O)n2CCN)c(C2CC2)c1 [Example 44] | 100 to 1000 |
| COC(=O)NCCn1c(-c2ccc(OC)cc2C2CC2)nc2sc3c(O)cccc3c2c1=O [Example 45] | 100 to 1000 |
| COc1ccc(-c2nc3sc4c(O)cccc4c3c(=O)n2CCNS(=O)(=O)c2ccc(F)cc2)c(C2CC2)c1 [Example 50] | 100 to 1000 |
| COc1ccc(-c2nc3sc4c(O)cccc4c3c(=O)n2C/C=C/CSc2ccccc2)c(C2CC2)c1 [Example 52] | 100 to 1000 |
| COc1ccc(-c2nc3sc4c(O)cccc4c3c(=O)n2C2CC2)c(C2CC2)c1 [Example 54] | 100 to 1000 |
| COc1ccc(-c2nc3sc4c(O)cccc4c3c(=O)n2C/C=C/CN(C)C)c(C2CC2)c1 [Example 55] | > 10000 |
| CCCn1c(-c2ccc(OC)cc2C2CC2)nc2sc3c(O)cccc3c2c1=O [Example 57] | 100 to 1000 |
| COc1ccc(-c2nc3sc4c(O)cccc4c3c(=O)n2CC(F)(F)F)c(C2CC2)c1 [Example 58] | 100 to 1000 |
| COc1ccc(-c2nc3sc4c(O)cccc4c3c(=O)n2CC2CC2)c(C2CC2)c1 [Example 59] | 100 to 1000 |
| CCc1ncc(Cn2c(-c3ccc(OC)cc3C3CC3)nc3sc4c(O)cccc4c3c2=O)s1 [Example 61] | 100 to 1000 |
| COc1ccc(-c2nc3sc4c(O)cccc4c3c(=O)n2Cc2csc(C)n2)c(C2CC2)c1 [Example 62] | < 100 |
| COc1ccc(-c2nc3sc4c(O)cccc4c3c(=O)n2Cc2ccno2)c(C2CC2)c1 [Example 63] | < 100 |
| COc1ccc(-c2nc3sc4c(O)cccc4c3c(=O)n2Cc2cnco2)c(C2CC2)c1 [Example 64] | < 100 |
| C=CCn1c(-c2ccc(OC)cc2C2CC2)nc2sc3c(O)cccc3c2c1=O [Example 65] | < 100 |
| COc1ccc(-c2nc3sc4c(O)cccc4c3c(=O)n2Cc2cc(C)no2)c(C2CC2)c1 [Example 66] | < 100 |
| COc1ccc(-c2nc3sc4c(O)cccc4c3c(=O)n2Cc2cnc(C)o2)c(C2CC2)c1 [Example 67] | < 100 |
| O=c1c2c(nc(-c3ccc(F)cc3C3CC3)n1Cc1ccno1)sc1c(O)cccc12 [Example 68] | < 100 |
| O=c1c2c(nc(-c3ccc(F)cc3C3CC3)n1Cc1cnco1)sc1c(O)cccc12 [Example 69] | < 100 |
| O=c1c2c(nc(-c3ccc(F)cc3C3CC3)n1Cc1cnoc1)sc1c(O)cccc12 [Example 70] | < 100 |
| COc1ccc(-c2nc3sc4c(OP(=O)(O)O)cccc4c3c(=O)n2Cc2nnn(C)n2)c(C2CC2)c1 [Example 71] | 1000 to 10000 |

Further lines, results first:

| IC50 [nM] | Compound |
| --- | --- |
| < 100 | CCC(=O)Oc1cccc2c1sc1nc(-c3ccc(OC)cc3C3CC3)n(Cc3cnco3)c(=O)c12 [Example 2, 2-(2-cyclopropyl-4-methoxyphenyl)-3-(oxazol-5-ylmethyl)-4-oxo-3,4-dihydrobenzo[4,5]thieno[2,3-d]pyrimidin-8-yl propionate] |
| < 100 | COc1ccc(-c2nc3sc4c(O)cccc4c3c(=O)n2Cc2ccccc2)c(C2CC2)c1 [Example 9] |
| < 100 | COc1ccc(-c2nc3sc4c(O)cccc4c3c(=O)n2Cc2ccncc2)c(C2CC2)c1 [Example 10] |
| < 100 | COc1ccc(-c2nc3sc4c(O)cccc4c3c(=O)n2Cc2ccnc(C)c2)c(C2CC2)c1 [Example 12] |
| < 100 | COc1ccc(-c2nc3sc4c(O)cccc4c3c(=O)n2Cc2ccnc(Cl)c2)c(C2CC2)c1 [Example 13] |
| < 100 | COc1ccc(-c2nc3sc4c(O)cccc4c3c(=O)n2Cc2cn[nH]c2)c(C2CC2)c1 [Example 14] |
| < 100 | COc1ccc(-c2nc3sc4c(O)cccc4c3c(=O)n2Cc2cncs2)c(C2CC2)c1 [Example 15] |
| < 100 | COc1ccc(-c2nc3sc4c(O)cccc4c3c(=O)n2Cc2nnn(C)n2)c(C2CC2)c1 [Example 16] |
| < 100 | COc1ccc(-c2nc3sc4c(O)cccc4c3c(=O)n2CCN2CCOCC2)c(C2CC2)c1 [Example 17] |
| < 100 | COc1ccc(-c2nc3sc4c(O)cccc4c3c(=O)n2CCN2CCN(C)CC2)c(C2CC2)c1 [Example 18] |
| < 100 | COc1ccc(-c2nc3sc4c(O)cccc4c3c(=O)n2CCN2CCNCC2)c(C2CC2)c1 [Example 19] |
| < 100 | COc1ccc(-c2nc3sc4c(O)cccc4c3c(=O)n2CCN2CCCCC2)c(C2CC2)c1 [Example 20] |
| < 100 | COc1ccc(-c2nc3sc4c(O)cccc4c3c(=O)n2CCNCc2ccncc2)c(C2CC2)c1 [Example 21] |
| < 100 | COc1ccc(-c2nc3sc4c(O)cccc4c3c(=O)n2CCNCc2ccccn2)c(C2CC2)c1 [Example 22] |
| < 100 | COc1ccc(-c2nc3sc4c(O)cccc4c3c(=O)n2CCNCc2cccnc2)c(C2CC2)c1 [Example 23] |
| < 100 | COc1ccc(-c2nc3sc4c(O)cccc4c3c(=O)n2CCN2CCC(O)CC2)c(C2CC2)c1 [Example 24] |
| < 100 | COc1ccc(-c2nc3sc4c(O)cccc4c3c(=O)n2CCN(C)C)c(C2CC2)c1 [Example 25] |
| < 100 | COc1ccc(-c2nc3sc4c(O)cccc4c3c(=O)n2CCN(C)Cc2ccncc2)c(C2CC2)c1 [Example 26] |
| < 100 | COc1ccc(-c2nc3sc4c(O)cccc4c3c(=O)n2CCN(C)Cc2cccnc2)c(C2CC2)c1 [Example 27] |
| < 100 | COc1ccc(-c2nc3sc4c(O)cccc4c3c(=O)n2CCNCc2cnccn2)c(C2CC2)c1 [Example 28] |

| IC50 [nM] | Compound |
| --- | --- |
| < 100 | COc1ccc(-c2nc3sc4c(O)cccc4c3c(=O)n2CCNCc2cnc(OC)nc2)c(C2CC2)c1 [Example 29] |
| < 100 | COc1ccc(-c2nc3sc4c(O)cccc4c3c(=O)n2CCNCc2cn[nH]c2)c(C2CC2)c1 [Example 30] |
| < 100 | COc1ccc(-c2nc3sc4c(O)cccc4c3c(=O)n2CCNCc2cncs2)c(C2CC2)c1 [Example 32] |
| < 100 | COc1ccc(-c2nc3sc4c(OC(=O)[C@H](C)N)cccc4c3c(=O)n2Cc2cncs2)c(C2CC2)c1 [Example 33] |
| < 100 | COc1ccc(-c2nc3sc4c(O)cccc4c3c(=O)n2CCNCc2nnn[nH]2)c(C2CC2)c1 [Example 34] |
| < 100 | COc1ccc(-c2nc3sc4c(O)cccc4c3c(=O)n2CCOC(=O)N2CCOCC2)c(C2CC2)c1 [Example 35] |
| < 100 | COc1ccc(-c2nc3sc4c(O)cccc4c3c(=O)n2C/C=C/COC(=O)N(C)C)c(C2CC2)c1 [Example 36] |
| < 100 | COc1ccc(-c2nc3sc4c(O)cccc4c3c(=O)n2C/C=C/COc2ccncc2)c(C2CC2)c1 [Example 37] |
| < 100 | COc1ccc(-c2nc3sc4c(O)cccc4c3c(=O)n2CCNCc2nnnn2C)c(C2CC2)c1 [Example 40] |
| < 100 | COc1ccc(-c2nc3sc4c(O)cccc4c3c(=O)n2CCNCc2nnn(C)n2)c(C2CC2)c1 [Example 41] |
| < 100 | COc1ccc(-c2nc3sc4c(O)cccc4c3c(=O)n2C/C=C/C(=O)N(C)C)c(C2CC2)c1 [Example 42] |
| < 100 | COc1ccc(-c2nc3sc4c(O)cccc4c3c(=O)n2C/C=C/CO)c(C2CC2)c1 [Example 43] |
| < 100 | O=c1c2c(nc(-c3ccc(F)cc3C3CC3)n1Cc1cncs1)sc1c(O)cccc12 [Example 46] |
| < 100 | O=c1c2c(nc(-c3ccccc3C3CC3)n1Cc1cncs1)sc1c(O)cccc12 [Example 47] |
| < 100 | CC(C)Oc1ccccc1-c1nc2sc3c(O)cccc3c2c(=O)n1Cc1cncs1 [Example 49] |
| < 100 | CCOC(=O)C1CC1Cn1c(-c2ccc(OC)cc2C2CC2)nc2sc3c(O)cccc3c2c1=O (stereo not shown) [Example 51] |
| < 100 | COc1ccc(-c2nc3sc4c(O)cccc4c3c(=O)n2C)c(C2CC2)c1 [Example 53] |
| < 100 | CCn1c(-c2ccc(OC)cc2C2CC2)nc2sc3c(O)cccc3c2c1=O [Example 56] |
| < 100 | COc1ccc(-c2nc3sc4c(O)cccc4c3c(=O)n2Cc2cnc(C)s2)c(C2CC2)c1 [Example 60] |
